Laboratory results taken from patent US5225417A, “Opioid agonist compounds” (priority 1992, dated 1993).
Counter-ions that a name gives are not always drawn.

How the values were obtained:
[1] = test system: mice or rats; conditions: background statement; cited from earlier work
[2] = test system: mice or rats; assay: Tail Flick Assay; format: in vivo
Excerpt: The "Tail Flick Assay" uses thermal pain of transient duration, and is a test in which the pain threshold of the mice or rats being analyzed has not been altered. It is useful for evaluating the ability of a compound or drug to increase the animal's pain threshold (i.e. prolong response latencies), rather than to restore normal thresholds.
The heat-induced response to the Tail Flick Assay is a reflex reaction mediated at the level of the spinal cord.
Opiate compounds having clinical efficacy as analgesics generally increase tail flick latencies. Thus, morphine and codeine are generally determined to be active in this test.
The Tail Flick Assay was performed generally in the manner described by G. Woolfe et al., "The Evaluation of the Analgesic Action of Pethidine Hydrochloride (Demerol)," J. Pharmacol. Exp. Ther., 80, 300, (1944), F. D'Amour et al., "A Method for Determining Loss of Pain Sensation," J. Pharmacol. Exp. Ther., 72, 74, 300-307 (1941), and E. Drower et al., "The Antinociceptive Effects of Prostaglandin Antagonists in the Rat," European Journal of Pharmacology, 133, 249-256 (1987).
Male Charles River albino mice and male Charles River Sprague-Dawley rats weighing 20 to 30 g and 200 to 250 g, respectively, was employed in this assay.
Tail flick response latencies (defined as the time that elapsed between the onset of a high intensity beam of light and the reflex removal of the mouse or rat's tail) was measured before (baseline) and again at fixed intervals after subcutaneous or intracerebro-ventricular administration of one of the compounds of the invention, or after the administration of saline (controls). The cut-off latencies established to prevent tissue damage in the animals are 12 seconds or 14 seconds in the mouse and rat, respectively, in the Tail Flick Assay. The significance of any increase in tail flick response latency is determined using analyses of variance.
One way analyses of variance were used to determine the significance of the effect of the compounds of the invention on response latencies.
"Activity" or "Inactivity" was determined at a particular concentration of the compound by a significant increase in tail flick latency above normal latencies.
The numbers in parentheses are calculated ED50 values.

[3] = target: μ opioid receptor (Rattus norvegicus, UniProt P33535); assay: Opiate Binding Assay, μ receptor (3[H]-DAMGO displacement)
μ opioid receptor, sequence (P33535 whole entry): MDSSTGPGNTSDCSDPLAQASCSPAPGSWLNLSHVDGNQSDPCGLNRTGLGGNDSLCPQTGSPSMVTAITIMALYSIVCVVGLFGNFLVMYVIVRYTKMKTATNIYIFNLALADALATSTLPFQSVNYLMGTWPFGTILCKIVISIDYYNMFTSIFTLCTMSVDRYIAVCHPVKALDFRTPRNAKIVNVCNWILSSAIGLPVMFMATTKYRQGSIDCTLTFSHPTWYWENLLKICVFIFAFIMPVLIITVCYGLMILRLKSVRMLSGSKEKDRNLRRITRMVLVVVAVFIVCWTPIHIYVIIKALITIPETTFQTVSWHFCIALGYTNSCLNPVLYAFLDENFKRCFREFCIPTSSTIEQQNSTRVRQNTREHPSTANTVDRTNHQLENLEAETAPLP

[4] = target: δ opioid receptor (Rattus norvegicus, UniProt P33533); assay: Opiate Binding Assay, δ receptor (3[H]-DSLET displacement)
δ opioid receptor, sequence (P33533 whole entry): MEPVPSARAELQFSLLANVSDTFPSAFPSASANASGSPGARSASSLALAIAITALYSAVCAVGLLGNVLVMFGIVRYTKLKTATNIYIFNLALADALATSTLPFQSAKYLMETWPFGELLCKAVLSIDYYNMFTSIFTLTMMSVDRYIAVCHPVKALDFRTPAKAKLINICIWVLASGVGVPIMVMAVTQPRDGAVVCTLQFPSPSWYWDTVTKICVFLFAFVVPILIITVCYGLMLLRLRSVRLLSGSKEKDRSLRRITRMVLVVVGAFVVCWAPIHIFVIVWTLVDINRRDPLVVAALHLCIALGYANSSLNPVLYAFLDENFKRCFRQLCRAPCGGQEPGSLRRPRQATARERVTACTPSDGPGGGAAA

Cc1cc(CC(=O)O)n(C)c1C(=O)c1ccc(Cl)cc1 [Zomax]
activity in tail flick test (general knowledge) [1]: little activity

CC(=O)Oc1ccccc1C(=O)O [aspirin]
activity in tail flick test (general knowledge) [1]: little activity

COc1ccc2c3c1O[C@H]1[C@@H](O)C=C[C@H]4[C@@H](C2)N(C)CC[C@@]341 [codeine]
activity in tail flick test (general knowledge) [1]: active

CN1CC[C@]23c4c5ccc(O)c4O[C@H]2[C@@H](O)C=C[C@H]3[C@H]1C5 [morphine]
activity in tail flick test (general knowledge) [1]: active

CO[C@@]12Cc3c(oc4ccccc34)[C@@H]3Oc4c(O)ccc5c4[C@@]31CCN(C)[C@@H]2C5 (relative stereo) [Example IX, 6,7,8,8a,9,14b-hexahydro-8aβ-methoxy-7-methyl-4,8(R,α)-methano-4bS*-5H-bisbenzofuro [3,2-e:2',3'-g]isoquinolin-1-ol, monohydrochloride]
Tail flick activity, intracerebroventricular ([2]; intracerebroventricular): 10.5 nmol
active dose in tail flick, intracerebroventricularly ([2]; intracerebroventricular): ca. 10 nmoles
Tail flick activity, subcutaneous (active at) ([2]; subcutaneous): > 30 mpk
IC50 [3]: 0.43 µM
IC50 [4]: 0.001 µM
Mean IC50 μ/δ Ratio ([4]; ratio of mean IC50 values for μ and δ opioid receptors): 430
